Holding throughout (assay): NCI tumour cell line growth inhibition, 48 h
Experiment [1] relates to CAKI-1 renal.
The test system of experiment [2] is CCRF-CEM leukemia.
In experiment [3] the test system is HCT-116 colon.
The subject of experiment [4] is HOP-92 NSCLC.
Experiment [5] deals with HS 578T breast.
The test system of experiment [6] is K-562 leukemia.
Experiment [7] relates to KM12 colon.
The subject of experiment [8] is NCI-H522 lung.
The subject of experiment [9] is OVCAR-3 ovarian.
For experiment [10], the system named is T-47D breast.

The structures appear in SMILES notation. “And” between values parts separate entries of the source, which are not always exact repeats. Equal values may be shown once.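 Grown in 96-well plates, cells were treated for 48 hours with each compound at five concentrations. Insufficient inhibition: endpoint recorded as highest concentration tested. GI50 marks 50% less growth. TGI denotes the concentration required for complete inhibition of growth.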

Take `[N-]=[N+]=Nc1c(-c2ccccc2)c(Cl)nc2ccccc12`: the TGI in [1], in experiment [2], in [3], in experiment [4], in experiment [5] and in experiment [6] was more than 100 µM throughout. Moreover, the TGI is 45.2 µM in [7], more than 100 µM in [8], more than 100 µM in experiment [9] and more than 100 µM in [10].

`CCCN(C(=O)c1c(Cl)nnc(Cl)c1C(=O)c1cc(Cl)nnc1Cl)c1cc(Cl)nnc1Cl`: the TGI in experiment [1] came to 22.3 µM; in experiment [2] it was 10.6 µM; in experiment [3], 19.6 µM; in experiment [4] it was 36.9 µM; in experiment [5], 14.9 µM; in experiment [6] it was 27.4 µM. The TGI amounted to 26.4 µM in [7], 13.3 µM in experiment [8], 26.6 µM in [9] and 23 µM in [10].

For the molecule `CCC(NC(C)c1ccccc1)C(O)c1ccc(OCc2ccccc2)c(OCc2ccccc2)c1` (configuration not stated), the TGI in experiment [1] is 24.4 µM; in experiment [2] it was 38.7 µM; in experiment [3], 27.7 µM; in experiment [4] it was 16.7 µM; in experiment [5], 46.9 µM; in [6], 9.44 µM. For the same molecule, the TGI in experiment [7] came to 18 µM; in experiment [8], 35.1 µM; in experiment [9], 25.6 µM; in experiment [10] it was 40.1 µM.

Turning to `O=[N+]([O-])/C=C1\COCc2cc3c(cc21)OCO3`, the TGI in experiment [1] was 25.7 µM; in experiment [2] it was 39.1 µM; in [3] it was 39.6 µM; in experiment [4] it was more than 100 µM; in [5], 80.7 µM; in experiment [6], more than 100 µM. For the same molecule, the TGI in [7] came out at 28.4 µM; in [8], 40.2 µM; in [9] it was 35.9 µM; in [10], 46 µM.

In the case of `COC(=O)c1c2n(c3ccccc13)C[C@H]1OC(C)(C)O[C@@H]21`, the TGI in experiment [1], in experiment [2], in [3], in experiment [4], in experiment [5] and in experiment [6] was more than 100 µM each time. The TGI in experiment [7], in experiment [8], in [9] and in experiment [10] was more than 100 µM each time.

As to `CCC1(CC)CC(=NNS(=O)(=O)c2ccc(C)cc2)C1`, the TGI in experiment [1], in [2], in experiment [3], in experiment [4], in [5] and in experiment [6] was more than 100 µM throughout. In addition, the TGI in [7], in experiment [8], in experiment [9] and in experiment [10] was more than 100 µM each time.

`Cc1c2cc[n+](CCN3CCCCC3)cc2c(C)c2c1[nH]c1ccc(O)cc12`: the GI50 is 21.1 µM in [1]; 1.8 µM in [2]; 4.75 µM in [3]; 4.34 µM in [4]; 2.33 µM in experiment [6]; 3.14 µM in experiment [7]. In experiment [9], the GI50 was 11.1 µM. Besides, the TGI is 24.3 µM and > 100 µM in experiment [1]; 17.4 µM and > 100 µM in experiment [2]; 24.1 µM and 26.1 µM in experiment [3]; 46.6 µM and 42 µM in experiment [4]; more than 100 µM in experiment [5]; 25.3 µM and 14.8 µM in experiment [6]. In addition, the TGI is 27.9 µM and 14.1 µM in [7]; 53.5 µM and 16.2 µM in [8]; 40.2 µM and > 50.3 µM in [9]; 12.1 µM in experiment [10].

For the molecule `O=C(N=S(NC(=O)c1ccccc1)C(Cl)(Cl)Cl)c1ccccc1` (configuration not stated), the TGI in experiment [1] is 54.9 µM; in experiment [2] it was 12.1 µM; in [3], 28.8 µM; in [4], more than 100 µM; in experiment [5] it was 99.5 µM; in [6], more than 84 µM. In addition, the TGI in experiment [7] was more than 100 µM; in [8] it was 51.1 µM; in experiment [9] it was more than 77.7 µM; in experiment [10] it was 67.5 µM.

On to `CC1=C2C(=O)c3ccccc3C(=O)[C@H]2[C@H]2CCO[C@H]2O1`, for which the TGI in experiment [1] was 46 µM; in experiment [2], 69.8 µM; in experiment [3], 79 µM; in experiment [4] it was 42.3 µM; in experiment [5], more than 100 µM; in [6] it was 74.5 µM. Also, the TGI in experiment [7] was 58.1 µM; in experiment [8], 32 µM; in experiment [9], 36.5 µM; in experiment [10] it was more than 100 µM.

Take `CCOC(=O)CSc1nc(-c2ccccc2)c(C#N)c(=O)[nH]1`: the TGI in experiment [1], in experiment [2], in experiment [3], in experiment [4], in [5] and in experiment [6] was more than 100 µM each time. The TGI is more than 100 µM in [7], 47 µM in [8], more than 100 µM in [9] and more than 100 µM in [10].

On to `COc1ccc(NC2Oc3cc4c(cc3C(c3cccc(OC)c3OC)C2C)OCO4)cc1` (configuration not stated), for which the TGI in experiment [1] is more than 100 µM; in [2], 47.1 µM; in [3], 16.3 µM; in [4] it was 25.1 µM; in experiment [5] it was 61.5 µM; in experiment [6], 70.6 µM. Besides, the TGI in experiment [7], in [8], in experiment [9] and in experiment [10] was more than 100 µM each time.

Turning to `O=C1C2CC=CCC2C(=O)N1n1c(-c2ccccc2)n[nH]c1=O` (configuration not stated), the TGI in experiment [1], in experiment [2], in experiment [3], in experiment [4], in experiment [5] and in experiment [6] was more than 100 µM in each case. In addition, the TGI in [7], in experiment [8], in experiment [9] and in experiment [10] was more than 100 µM in each case.

Regarding `CN(C(=O)Cc1cc(Cl)c(Cl)cc1N=C=S)[C@H]1CCCC[C@@H]1N1CCCC1`, the TGI is 29.2 µM in experiment [1]; 7.32 µM in experiment [2]; 21.7 µM in experiment [3]; 21.9 µM in [4]; 42.4 µM in experiment [5]; 5.89 µM in [6]. Further, the TGI in experiment [7] amounted to 29.7 µM; in experiment [8], 27.7 µM; in experiment [9], 29.6 µM; in experiment [10], 37.4 µM.

On to `COC(=O)[C@@H]1CN(C(=O)CCc2ccccc2)C(=O)N1C(=O)OCc1ccccc1`, for which the TGI in experiment [1], in [2], in experiment [3], in experiment [4], in experiment [5] and in [6] was more than 100 µM throughout. For the same molecule, the TGI in experiment [7], in experiment [8], in experiment [9] and in [10] was more than 100 µM throughout.

Turning to `COc1ccc(NC(=O)/C(=N\NC(=O)C[n+]2ccccc2)c2c(O)c3ccc(O)cc3oc2=O)c([N+](=O)[O-])c1`, the TGI in experiment [1], in [2], in experiment [3], in experiment [4], in [5] and in experiment [6] was more than 100 µM in each case. Further, the TGI in experiment [7], in [8], in experiment [9] and in experiment [10] was more than 100 µM in each case.

On to `COc1c2c(cc3oc(C)cc(=O)c13)OC(=N)C(C(N)=O)C2CC(=O)c1ccc(N)cc1` (configuration not stated), for which the TGI in [1], in [2], in experiment [3], in experiment [4], in experiment [5] and in [6] was more than 100 µM each time. Besides, the TGI in experiment [7], in experiment [8], in experiment [9] and in experiment [10] was more than 100 µM in each case.

In the case of `CC1=C(N2CC2)C(=O)c2nc3n(c2C1=O)CCC3OC(=O)CCl` (configuration not stated), the TGI was 0.174 µM in experiment [1]; 3.65 µM in experiment [2]; 0.383 µM in experiment [3]; 8.04 µM in experiment [4]; 0.0784 µM in experiment [5]; 1.61 µM in [6]. Moreover, the TGI in [7] was determined as 0.0977 µM; in experiment [8] it was 0.0617 µM; in [9], 0.52 µM; in experiment [10] it was 3.88 µM.

`NC(N)=N/N=C/c1c(-c2ccccc2)nc2n1ccc1nc(-c3ccccc3)c(/C=N/N=C(N)N)n12`: the TGI in experiment [1], in experiment [2], in experiment [3], in experiment [4], in [5] and in experiment [6] was more than 100 µM throughout. Moreover, the TGI in [7], in experiment [8], in experiment [9] and in experiment [10] was more than 100 µM in each case.

`Cc1ccc(N2C(=O)C3c4[nH]c5ccccc5c4C4CCC(C(C)(C)C)CC4C3C2=O)cc1` (configuration not stated): the TGI in [1] is 23.2 µM; in experiment [2], 15.4 µM; in [3] it was 24.6 µM; in experiment [4], 32.9 µM; in experiment [5], 16.9 µM; in [6], 17.5 µM. Moreover, the TGI in [7] was 65 µM; in experiment [8] it was 26.5 µM; in experiment [9], 8.62 µM; in experiment [10], 36 µM.

As for `N#C/C(=C\c1ccccc1)C(=O)Nc1nnc(-c2ccccc2)o1`, the TGI in experiment [1] is 73.2 µM; in experiment [2], 50.6 µM; in [3], more than 100 µM; in [4] it was more than 100 µM; in [5], more than 100 µM; in experiment [6] it was more than 100 µM. The TGI is more than 100 µM in [7], more than 100 µM in [8], 66.3 µM in experiment [9] and more than 100 µM in [10].

Take `C=C1CC2OC2(C(=O)O[C@H]2CCC3[C@@H]4CCC5=CC(=O)CC[C@]5(C)C4CC[C@@]32C)C1=O` (some centres not stated): the TGI in experiment [1] was 25 µM; in [2], 12.7 µM; in experiment [3] it was 13.8 µM; in experiment [4], 23.5 µM; in experiment [5] it was 45.1 µM; in experiment [6] it was 7.03 µM. Moreover, the TGI in experiment [7] was determined as 32 µM; in [8], 8 µM; in experiment [9], 21.8 µM; in experiment [10], 14.2 µM.

Source of the values: PubChem BioAssay (NCI).
